# From patent publication US11730720B2, “ALK5 inhibitors” (THERAVANCE BIOPHARMA R&D IP, LLC, priority 2018, dated 2023)
# Key:
# [1] = biological target: T1, recombinant human ALK5 (TGF-βR1) protein (Homo sapiens, UniProt P36897); assay: Biochemical ALK5 (TGF-βR1) assay to measure pKi (LANCE Ultra ULight kinase assay); conditions: apparent pKi, converted from pIC50 using the Cheng-Prusoff equation
# T1 construct: purchased Life Technologies PR9075A
# T1 sequence (P36897 34-503): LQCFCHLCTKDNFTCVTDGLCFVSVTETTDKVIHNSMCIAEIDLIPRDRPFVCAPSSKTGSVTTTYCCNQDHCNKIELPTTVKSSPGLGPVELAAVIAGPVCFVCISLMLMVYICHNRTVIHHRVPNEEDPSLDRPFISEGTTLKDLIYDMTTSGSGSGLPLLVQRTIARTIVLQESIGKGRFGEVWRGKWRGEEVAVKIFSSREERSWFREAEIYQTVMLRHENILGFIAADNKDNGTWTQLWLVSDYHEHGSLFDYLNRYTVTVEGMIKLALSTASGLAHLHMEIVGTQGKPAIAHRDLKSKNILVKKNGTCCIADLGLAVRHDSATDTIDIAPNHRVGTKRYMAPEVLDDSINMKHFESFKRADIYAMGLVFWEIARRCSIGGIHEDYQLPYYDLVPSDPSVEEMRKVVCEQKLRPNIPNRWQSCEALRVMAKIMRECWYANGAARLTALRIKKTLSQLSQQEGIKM
# Summary of the method: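 TR-FRET kinase format: compound dose range 10 μM–25 pM equilibrated 60 min with human ALK5 and ULight-labelled topoisomerase 2α peptide in HEPES/MgCl2 buffer pH 7.5 with DTT. Reaction started with ATP (125 μM stock, 5× final), 60 min at 37° C, stopped with EDTA/Eu-anti-phospho antibody; pKi derived from pIC50 via Cheng-Prusoff.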
# [2] = tested on: TGF-β-stimulated SMAD3 phosphorylation in BEAS-2B cells; assay: Cellular ALK5 potency assay, inhibition of TGF-β stimulated pSMAD3 formation in BEAS-2B cells; format: cell-based; conditions: Homo sapiens, inhibition of TGF-β (10 ng/mL) stimulated pSMAD3 formation, 1 hour compound incubation, read-out: BEAS2B pIC50 (converted)
# Summary of the method: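 Phospho-SMAD3 was quantified by AlphaLISA in lysates of human lung epithelial BEAS-2B cells. Compound was added 1 h (37 °C, HEPES/BSA-supplemented HBSS) before a 30 min challenge with 10 ng/mL TGF-β. Values are pIC50 relative to stimulated cells without compound.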
compound,measurement,setting,value
"Fc1ccc(Cl)cc1-c1n[nH]cc1-c1ccc2ncc(NCC3CNCCN3)cc2n1 (centres unmarked) [Compound 1-26, 6-[3-(5-chloro-2-fluoro-phenyl)-1H-pyrazol-4-yl]-N-(piperazin-2-ylmethyl)-1,5-naphthyridin-3-amine]",Ki,[1],0.0398 to 0.316 nM
same,IC50,[2],25.1 to 158 nM
"Fc1ccc(Cl)cc1-c1n[nH]cc1-c1ccc2ncc(NCC3CCNCC3)cc2n1 [Compound 1-27, 6-[3-(5-chloro-2-fluoro-phenyl)-1H-pyrazol-4-yl]-N-(4-piperidylmethyl)-1,5-naphthyridin-3-amine]",Ki,[1],≤ 0.0316 nM
same,IC50,[2],25.1 to 158 nM
"Fc1ccc(Cl)cc1-c1n[nH]cc1-c1ccc2ncc(NCC3CNC3)cc2n1 [Compound 1-28, N-(azetidin-3-ylmethyl)-6-[3-(5-chloro-2-fluoro-phenyl)-1H-pyrazol-4-yl]-1,5-naphthyridin-3-amine]",Ki,[1],0.0398 to 0.316 nM
same,IC50,[2],25.1 to 158 nM
"CN1CCN(c2ccc(Nc3cnc4ccc(-c5c[nH]nc5-c5cc(Cl)ccc5F)nc4c3)nc2)CC1 [Compound 1-29, 6-(3-(5-chloro-2-fluorophenyl)-1H-pyrazol-4-yl)-N-(5-(4-methylpiperazin-1-yl)pyridin-2-yl)-1,5-naphthyridin-3-amine]",Ki,[1],0.0398 to 0.316 nM
same,IC50,[2],25.1 to 158 nM
"CC(C)N1CCN(c2ccc(Nc3cnc4ccc(-c5c[nH]nc5-c5cc(Cl)ccc5F)nc4c3)nc2)CC1 [Compound 1-30, 6-(3-(5-chloro-2-fluorophenyl)-1H-pyrazol-4-yl)-N-(5-(4-isopropylpiperazin-1-yl)pyridin-2-yl)-1,5-naphthyridin-3-amine]",Ki,[1],0.0398 to 0.316 nM
same,IC50,[2],25.1 to 158 nM
"CN(C)C1CN(c2cnc3ccc(-c4c[nH]nc4-c4cc(Cl)ccc4F)nc3c2)C1 [Compound 1-31, 1-(6-(3-(5-chloro-2-fluorophenyl)-1H-pyrazol-4-yl)-1,5-naphthyridin-3-yl)-N,N-dimethylazetidin-3-amine]",Ki,[1],0.0398 to 0.316 nM
same,IC50,[2],≤ 20 nM
"NC(=O)C1(N2CCN(c3cnc4ccc(-c5c[nH]nc5-c5cc(Cl)ccc5F)nc4c3)CC2)CCCC1 [Compound 1-32, 1-[4-[6-[3-(5-chloro-2-fluoro-phenyl)-1H-pyrazol-4-yl]-1,5-naphthyridin-3-yl]piperazin-1-yl]cyclopentanecarboxamide]",Ki,[1],0.0398 to 0.316 nM
same,IC50,[2],25.1 to 158 nM
"CN(C)C1(C)CN(c2cnc3ccc(-c4c[nH]nc4-c4cc(Cl)ccc4F)nc3c2)C1 [Compound 1-33, 1-[6-[3-(5-chloro-2-fluoro-phenyl)-1H-pyrazol-4-yl]-1,5-naphthyridin-3-yl]-N,N,3-trimethyl-azetidin-3-amine]",Ki,[1],0.398 to 3.16 nM
same,IC50,[2],25.1 to 158 nM
"O=C(OCc1ccccc1)N1CCC2(CCN(c3cnc4ccc(-c5c[nH]nc5-c5cc(Cl)ccc5F)nc4c3)C2)C1 (centres unmarked) [Compound 1-35, benzyl 7-[6-[3-(5-chloro-2-fluoro-phenyl)-1H-pyrazol-4-yl]-1,5-naphthyridin-3-yl]-2,7-diazaspiro[4.4]nonane-2-carboxylate]",Ki,[1],3.98 to 31.6 nM
same,IC50,[2],200 to 1260 nM
"OCCN1CCN(c2cnc3ccc(-c4c[nH]nc4-c4cc(Cl)ccc4F)nc3c2)CC1 [Compound 1-36, 2-[4-[6-[3-(5-chloro-2-fluoro-phenyl)-1H-pyrazol-4-yl]-1,5-naphthyridin-3-yl]piperazin-1-yl]ethanol]",Ki,[1],0.0398 to 0.316 nM
same,IC50,[2],25.1 to 158 nM
"CN1CCC(N(C)c2cnc3ccc(-c4c[nH]nc4-c4cc(Cl)ccc4F)nc3c2)CC1 [Compound 1-37, 6-[3-(5-chloro-2-fluoro-phenyl)-1H-pyrazol-4-yl]-N-methyl-N-(1-methyl-4-piperidyl)-1,5-naphthyridin-3-amine]",Ki,[1],0.0398 to 0.316 nM
same,IC50,[2],25.1 to 158 nM
"CCN1CCC(N(C)c2cnc3ccc(-c4c[nH]nc4-c4cc(Cl)ccc4F)nc3c2)CC1 [Compound 1-38, 6-[3-(5-chloro-2-fluoro-phenyl)-1H-pyrazol-4-yl]-N-(1-ethyl-4-piperidyl)-N-methyl-1,5-naphthyridin-3-amine]",Ki,[1],0.398 to 3.16 nM
same,IC50,[2],25.1 to 158 nM
"Fc1ccc(Cl)cc1-c1n[nH]cc1-c1ccc2ncc(N3CC(N4CCCCC4)C3)cc2n1 [Compound 1-40, 2-[3-(5-chloro-2-fluoro-phenyl)-1H-pyrazol-4-yl]-7-[3-(1-piperidyl)azetidin-1-yl]-1,5-naphthyridine]",Ki,[1],0.0398 to 0.316 nM
same,IC50,[2],25.1 to 158 nM
"CN(CC1CNC1)c1cnc2ccc(-c3c[nH]nc3-c3cc(Cl)ccc3F)nc2c1 [Compound 1-41, N-(azetidin-3-ylmethyl)-6-[3-(5-chloro-2-fluoro-phenyl)-1H-pyrazol-4-yl]-N-methyl-1,5-naphthyridin-3-amine]",Ki,[1],0.0398 to 0.316 nM
same,IC50,[2],25.1 to 158 nM
"CC(C)N1CCN(c2cnc3ccc(-c4c[nH]nc4-c4cc(Cl)ccc4F)nc3c2)CC1 [Compound 1-43, 2-[3-(5-chloro-2-fluoro-phenyl)-1H-pyrazol-4-yl]-7-(4-isopropylpiperazin-1-yl)-1,5-naphthyridine]",Ki,[1],0.0398 to 0.316 nM
same,IC50,[2],25.1 to 158 nM
"Fc1ccc(Cl)cc1-c1n[nH]cc1-c1ccc2ncc(N3CCC(N4CCCC4)CC3)cc2n1 [Compound 1-44, 2-[3-(5-chloro-2-fluoro-phenyl)-1H-pyrazol-4-yl]-7-(4-pyrrolidin-1-yl-1-piperidyl)-1,5-naphthyridine]",Ki,[1],0.0398 to 0.316 nM
same,IC50,[2],25.1 to 158 nM
"CN(C)C1CCN(c2cnc3ccc(-c4c[nH]nc4-c4cc(Cl)ccc4F)nc3c2)CC1 [Compound 1-45, 1-[6-[3-(5-chloro-2-fluoro-phenyl)-1H-pyrazol-4-yl]-1,5-naphthyridin-3-yl]-N,N-dimethyl-piperidin-4-amine]",Ki,[1],0.0398 to 0.316 nM
same,IC50,[2],≤ 20 nM
"Fc1ccc(Cl)cc1-c1n[nH]cc1-c1ccc2ncc(N3CCn4nc(N5CCN(Cc6ccccc6)CC5)nc4C3)cc2n1 [Compound 1-46, 7-[2-(4-benzylpiperazin-1-yl)-6,8-dihydro-5H-[1,2,4]triazolo[1,5-a]pyrazin-7-yl]-2-[3-(5-chloro-2-fluoro-phenyl)-1H-pyrazol-4-yl]-1,5-naphthyridine]",Ki,[1],0.0398 to 0.316 nM
same,IC50,[2],25.1 to 158 nM
"Fc1ccc(Cl)cc1-c1n[nH]cc1-c1ccc2ncc(N3CCn4nc(N5CCN(Cc6ccccc6)CC5)cc4C3)cc2n1 [Compound 1-47, 7-[2-(4-benzylpiperazin-1-yl)-6,7-dihydro-4H-pyrazolo[1,5-a]pyrazin-5-yl]-2-[3-(5-chloro-2-fluoro-phenyl)-1H-pyrazol-4-yl]-1,5-naphthyridine]",Ki,[1],0.0398 to 0.316 nM
same,IC50,[2],25.1 to 158 nM
"Fc1ccc(Cl)cc1-c1n[nH]cc1-c1ccc2ncc(N3CCn4nc(Br)nc4C3)cc2n1 [Compound 1-48, 7-(2-bromo-6,8-dihydro-5H-[1,2,4]triazolo[1,5-a]pyrazin-7-yl)-2-[3-(5-chloro-2-fluoro-phenyl)-1H-pyrazol-4-yl]-1,5-naphthyridine]",Ki,[1],0.398 to 3.16 nM
same,IC50,[2],≤ 20 nM
"CNC1CN(c2cnc3ccc(-c4c[nH]nc4-c4cc(Cl)ccc4F)nc3c2)C1 [Compound 1-49, 1-(6-(3-(5-chloro-2-fluorophenyl)-1H-pyrazol-4-yl)-1,5-naphthyridin-3-yl)-N-methylazetidin-3-amine]",Ki,[1],0.0398 to 0.316 nM
same,IC50,[2],≤ 20 nM
"NC1CN(c2cnc3ccc(-c4c[nH]nc4-c4cc(Cl)ccc4F)nc3c2)C1 [Compound 1-52, 1-[6-[3-(5-chloro-2-fluoro-phenyl)-1H-pyrazol-4-yl]-1,5-naphthyridin-3-yl]azetidin-3-amine]",Ki,[1],0.0398 to 0.316 nM
same,IC50,[2],≤ 20 nM
